One assay has as its target T1, GST-hMEK1 and mERK2 (Homo sapiens, UniProt Q02750).
T1 construct: purified GST-hMEK1 and mERK2 enzymes; fused on or other part: GST tag on hMEK1
In kind it is biochemical. The settings on record: minimum concentration causing 50% inhibition in vitro assays; MEK kinase inhibition. How it is done:
In order to identify ideal inhibitory compounds in a high throughput-screening (HTS) format a 96-well radiolabel incorporation format assay utilizing purified GST-hMEK1 and mERK2 enzymes was developed. Compounds were diluted from dimethylsulfoxide (DMSO) stocks into 1× Simplified Assay Buffer (SAB) (20 mM HEPES and 10 mM MgCl2). A typical 25 microliter assay contained 0.002 nanomoles MEK^CA, 0.02 nanomoles ERK, 0.25 nanomoles MBP, 0.25 nanomoles unlabeled ATP, and 0.1 μCi [γ^33P] ATP. The screening assay essentially comprised four additions. Five μ1 of diluted compound were dispensed to 96-well assay plates. Ten μl of 2.5× enzyme cocktail (MEK^CA and ERK only) were then added to each well followed by a pre-incubation for 15 minutes at 37° C. […] Finally, 200 μl of 10% trichloroacetic acid (TCA) were added and incubated for 30 minutes to halt the reaction and precipitate radio labeled protein products. A filter plate was placed in the Filtermate Harvester, wetted twice with water, and rinsed twice with 1% pyrophosphate to block nonspecific binding to the glass filter. An assay plate was then scanned and aspirated or harvested onto the filter plate. The filter plate was then washed 12 times with water. Water was displaced by two washes with absolute ethanol and the plate was removed and allowed to air dry for 30 minutes at room temperature. A back seal was applied manually and 40 μl of scintillation cocktail were dispensed per well. A top seal was applied and the plate was counted in the TopCount for two seconds per well.

Assay [1] has as its system MEK-ERK dependent luciferase expression (constitutively activated mutant MEK) in 293T cells. Put plainly: Cell-based MEK-ERK dependent luciferase reporter assay in 293T cells. The settings on record: Homo sapiens, HEK-293T, minimum concentration causing 50% inhibition in cell-based assays, 24 hours incubation. How it is done: Activities of compounds were determined using a cell-based assay system. 293T cells were engineered to express a luciferase reporter protein in response to activation of ERK. ERK was activated by the doxycycline inducible expression of a constitutively activated mutant MEK. The activated MEK mutant had serines 218 and 222 replaced with aspartic acids. Therefore, addition of doxycycline to the media of cells induced an increase in MEK-ERK dependent luciferase expression.
Cells were plated at 5000 cells per well of a 384 well plate in 20 ul of media containing 10 ng/ml doxycycline. Compounds were resuspended in DMSO at a concentration of 20 mM. These compound stocks were diluted at least 200 fold so the concentration of DMSO was never above 0.5%. Cells were incubated with compounds for 24 hours at which time 25 ul of Steady-Glo (Promega Corp.) was added. The plates were then assayed for luminescence. Percent inhibition was calculated by dividing the luminescence of compound treated cells by control cells.

T1 sequence (P63085 2-358): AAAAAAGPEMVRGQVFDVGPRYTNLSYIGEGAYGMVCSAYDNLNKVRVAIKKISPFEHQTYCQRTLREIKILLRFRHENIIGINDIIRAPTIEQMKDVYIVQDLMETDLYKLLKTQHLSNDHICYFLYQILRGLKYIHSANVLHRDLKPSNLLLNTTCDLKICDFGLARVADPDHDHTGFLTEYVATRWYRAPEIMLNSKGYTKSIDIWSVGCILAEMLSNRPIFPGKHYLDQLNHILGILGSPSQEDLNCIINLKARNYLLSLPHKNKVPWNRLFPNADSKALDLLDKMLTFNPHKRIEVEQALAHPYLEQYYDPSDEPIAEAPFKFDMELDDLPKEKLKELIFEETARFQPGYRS
T1 sequence (Q02750 whole entry, the tested form may be a part): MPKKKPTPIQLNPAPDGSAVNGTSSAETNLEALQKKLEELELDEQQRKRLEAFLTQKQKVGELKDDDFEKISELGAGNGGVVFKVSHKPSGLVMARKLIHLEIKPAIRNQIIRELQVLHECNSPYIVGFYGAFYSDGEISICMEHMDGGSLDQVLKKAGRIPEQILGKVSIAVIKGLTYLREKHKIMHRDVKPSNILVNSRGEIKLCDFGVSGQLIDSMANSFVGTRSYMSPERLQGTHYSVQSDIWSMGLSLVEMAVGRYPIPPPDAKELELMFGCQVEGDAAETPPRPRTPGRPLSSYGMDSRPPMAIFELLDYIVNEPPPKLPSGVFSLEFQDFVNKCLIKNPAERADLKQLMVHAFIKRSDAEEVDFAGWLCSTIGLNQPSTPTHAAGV

For `N#Cc1c(O)nsc1Nc1cccc(Cl)c1` [Compound 10], on GST-hMEK1 and mERK2, the IC50 lay in the range of 10 to 100 µM. This molecule gave an EC50 in assay [1] of more than 100 µM.

As to `Cc1ccccc1Nc1snc(O)c1C#N` [Compound 5], on GST-hMEK1 and mERK2, the IC50 was 10 to 100 µM. This molecule also returned an EC50 in assay [1] of 10 to 100 µM.

For `Cc1ccc(Nc2snc(O)c2C#N)cc1` [Compound 3], the IC50 against GST-hMEK1 and mERK2 was 10 to 100 µM. The EC50 in assay [1] was less than 10 µM.

`NC(=O)c1c(O)nsc1Nc1ccc(Oc2ccccc2)cc1` [Compound 37]: the IC50 on GST-hMEK1 and mERK2 was less than 10 µM.

`CN(C)c1ccc2ccccc2c1Nc1snc(O)c1C#N` [Compound 17] registered an IC50 on GST-hMEK1 and mERK2 of less than 10 µM. Besides, the EC50 in assay [1] was less than 10 µM.

In turn, `N#Cc1c(O)nsc1Nc1ccc([N+](=O)[O-])cc1` [Compound 12] came in with an IC50 against GST-hMEK1 and mERK2 of less than 10 µM. The concentration for a half-maximal effect (EC50) in assay [1] was more than 100 µM.

As to `N=C(N)c1c(O)nsc1Nc1ccc(Oc2ccccc2)cc1` [Compound 36], the IC50 against GST-hMEK1 and mERK2 is less than 10 µM.

At GST-hMEK1 and mERK2, `COc1cc(-c2ccccc2)ccc1Nc1snc(O)c1C#N` [Compound 14] showed an IC50 of less than 10 µM. This molecule also registered an EC50 in assay [1] of more than 100 µM.

For the molecule `COc1ccc(Nc2snc(O)c2C#N)cc1` [Compound 6], in assay [1], the 50% effective concentration (EC50) was more than 100 µM.

In turn, `CCCCNc1snc(O)c1C#N` [Compound 32] gave an IC50 against GST-hMEK1 and mERK2 of less than 10 µM.

As to `COC(=O)c1ccccc1Nc1snc(O)c1C#N` [Compound 27], on GST-hMEK1 and mERK2, the half-maximal inhibitory concentration (IC50) is less than 10 µM.

In turn, `N#Cc1c(O)nsc1Nc1ccccc1Cl` [Compound 11] gave a 50% inhibitory concentration (IC50) at GST-hMEK1 and mERK2 of 10 to 100 µM. In addition, in assay [1], the EC50 is more than 100 µM.

On to `N#Cc1c(O)nsc1NCC1CCCO1` (stereo not shown) [Compound 34], for which, at GST-hMEK1 and mERK2, the IC50 is less than 10 µM.

`COc1ccccc1Nc1snc(O)c1C#N` [Compound 7] displayed an EC50 in assay [1] of more than 100 µM.

In the case of `CC(=O)c1ccc(Nc2snc(O)c2C#N)cc1` [Compound 22], the IC50 on GST-hMEK1 and mERK2 was less than 10 µM.

The molecule `N#Cc1c(O)nsc1NCCc1ccc(O)cc1` [Compound 35] gave an IC50 against GST-hMEK1 and mERK2 of less than 10 µM.

In turn, `COC(=O)c1ccc(Nc2snc(O)c2C#N)cc1` [Compound 25] yielded an IC50 against GST-hMEK1 and mERK2 of less than 10 µM.

As for `CC(C)Nc1snc(O)c1C#N` [Compound 39], the IC50 on GST-hMEK1 and mERK2 is less than 10 µM.

Regarding `N#Cc1c(O)nsc1Nc1ccccc1F` [Compound 26], the IC50 on GST-hMEK1 and mERK2 was less than 10 µM.

In turn, `N#Cc1c(Nc2ccc(Br)cc2)s[nH]c1=O` [Compound 24] came in with an IC50 against GST-hMEK1 and mERK2 of less than 10 µM.

With `N#Cc1c(O)nsc1Nc1ccccc1C(F)(F)F` [Compound 19], the IC50 against GST-hMEK1 and mERK2 lay in the range of 10 to 100 µM.

Turning to `N#Cc1c(O)nsc1NCCCN1CCOCC1` [Compound 40], at GST-hMEK1 and mERK2, the concentration for half-maximal inhibition (IC50) is less than 10 µM.

In turn, `N#Cc1c(O)nsc1Nc1cccnc1` [Compound 29] came in with an IC50 at GST-hMEK1 and mERK2 of less than 10 µM.

Consider `N#Cc1c(OC2CCCCC2)nsc1Nc1ccccc1` [Compound 38], for which the IC50 against GST-hMEK1 and mERK2 is less than 10 µM.

In turn, `N#Cc1c(O)nsc1NC1CCc2ccccc21` (stereo not shown) [Compound 31] gave a concentration for half-maximal inhibition (IC50) against GST-hMEK1 and mERK2 of less than 10 µM.

With `N#Cc1c(O)nsc1Nc1cccc2ccccc12` [Compound 13], the concentration for half-maximal inhibition (IC50) on GST-hMEK1 and mERK2 is less than 10 µM. Moreover, the EC50 in assay [1] was less than 10 µM.

`COc1cccc(Nc2snc(O)c2C#N)c1` [Compound 8]: in assay [1], the EC50 was more than 100 µM.

As for `N#Cc1c(O)nsc1Nc1ccc(Cl)cc1` [Compound 9], the IC50 against GST-hMEK1 and mERK2 lay within 10 to 100 µM. In assay [1], the EC50 is more than 100 µM.

Consider `N#Cc1c(Br)nsc1Nc1ccccc1` [Compound 2], for which, at GST-hMEK1 and mERK2, the half-maximal inhibitory concentration (IC50) lay in the range of 10 to 100 µM. In assay [1], the EC50 is less than 10 µM.

For `CC(C)c1cccc(C(C)C)c1Nc1snc(O)c1C#N` [Compound 16], the IC50 at GST-hMEK1 and mERK2 is 10 to 100 µM. Besides, the EC50 in assay [1] fell in the range of 10 to 100 µM.

Take `N#Cc1c(O)nsc1N1CCCCC1` [Compound 33]: the half-inhibitory concentration (IC50) against GST-hMEK1 and mERK2 is less than 10 µM.

For `N#Cc1c(O)nsc1Nc1ccccc1` [Compound 1], on GST-hMEK1 and mERK2, the IC50 is less than 10 µM. This molecule also registered an EC50 in assay [1] of 10 to 100 µM.

For the molecule `CN(C)c1ccc(Nc2snc(O)c2C#N)c2ccccc12` [Compound 18], the IC50 against GST-hMEK1 and mERK2 is less than 10 µM. In assay [1], this molecule displayed an EC50 of less than 10 µM.

`N#Cc1c(O)nsc1Nc1ccc(N)cc1` [Compound 21]: the IC50 against GST-hMEK1 and mERK2 was less than 10 µM.

`Cc1ccc(Nc2snc(N)c2C#N)cc1` [Compound 20] registered an IC50 against GST-hMEK1 and mERK2 of less than 10 µM.

Take `CC(C)c1ccc(Nc2snc(O)c2C#N)cc1` [Compound 15]: the 50% inhibitory concentration (IC50) against GST-hMEK1 and mERK2 is less than 10 µM. This molecule also had an EC50 in assay [1] of less than 10 µM.

At GST-hMEK1 and mERK2, `Cc1cccc(Nc2s[nH]c(=O)c2C#N)c1` [Compound 4] had an IC50 of 10 to 100 µM. In assay [1], this molecule yielded an EC50 of 10 to 100 µM.

These data come from patent publication US6989451B2, “Heterocyclic compounds and uses thereof” (Valeant Research & Development, priority 2002, dated 2006).
